{
  "source": "BigSolDB 2.1",
  "data": [
    {"smiles": "Br.Fc1ccc(NC2=NCCC3(CCCCC3)[Se]2)cc1", "values": [
      {"measurement": "solubility (mole fraction)", "setting": "in n-hexane, 293.15 K", "value": "1.27e-06"},
      {"measurement": "solubility (mole fraction)", "setting": "in n-hexane, 298.15 K", "value": "1.59e-06"},
      {"measurement": "solubility (mole fraction)", "setting": "in n-hexane, 303.15 K", "value": "1.9e-06"},
      {"measurement": "solubility (mole fraction)", "setting": "in n-hexane, 308.15 K", "value": "2.35e-06"},
      {"measurement": "solubility (mole fraction)", "setting": "in n-hexane, 313.15 K", "value": "2.89e-06"},
      {"measurement": "solubility (mole fraction)", "setting": "in n-octanol, 293.15 K", "value": 0.003},
      {"measurement": "solubility (mole fraction)", "setting": "in n-octanol, 298.15 K", "value": 0.0036},
      {"measurement": "solubility (mole fraction)", "setting": "in n-octanol, 303.15 K", "value": 0.0042},
      {"measurement": "solubility (mole fraction)", "setting": "in n-octanol, 308.15 K", "value": 0.0048},
      {"measurement": "solubility (mole fraction)", "setting": "in n-octanol, 313.15 K", "value": 0.0055}
    ]},
    {"smiles": "Br.CC(C)c1ccc(NC2=NCCC3(CCCCC3)[Se]2)cc1", "values": [
      {"measurement": "solubility (mole fraction)", "setting": "in n-hexane, 293.15 K", "value": "4.69e-06"},
      {"measurement": "solubility (mole fraction)", "setting": "in n-hexane, 298.15 K", "value": "5.82e-06"},
      {"measurement": "solubility (mole fraction)", "setting": "in n-hexane, 303.15 K", "value": "7.39e-06"},
      {"measurement": "solubility (mole fraction)", "setting": "in n-hexane, 308.15 K", "value": "8.84e-06"},
      {"measurement": "solubility (mole fraction)", "setting": "in n-hexane, 313.15 K", "value": "1.11e-05"},
      {"measurement": "solubility (mole fraction)", "setting": "in n-octanol, 293.15 K", "value": 0.0484},
      {"measurement": "solubility (mole fraction)", "setting": "in n-octanol, 298.15 K", "value": 0.0551},
      {"measurement": "solubility (mole fraction)", "setting": "in n-octanol, 303.15 K", "value": 0.0647},
      {"measurement": "solubility (mole fraction)", "setting": "in n-octanol, 308.15 K", "value": 0.0728},
      {"measurement": "solubility (mole fraction)", "setting": "in n-octanol, 313.15 K", "value": 0.0831}
    ]},
    {"smiles": "Br.c1ccc(NC2=NCCC3(CCCCC3)[Se]2)cc1", "values": [
      {"measurement": "solubility (mole fraction)", "setting": "in n-hexane, 293.15 K", "value": "4.94e-06"},
      {"measurement": "solubility (mole fraction)", "setting": "in n-hexane, 298.15 K", "value": "5.94e-06"},
      {"measurement": "solubility (mole fraction)", "setting": "in n-hexane, 303.15 K", "value": "7.1e-06"},
      {"measurement": "solubility (mole fraction)", "setting": "in n-hexane, 308.15 K", "value": "8.46e-06"},
      {"measurement": "solubility (mole fraction)", "setting": "in n-hexane, 313.15 K", "value": "9.98e-06"},
      {"measurement": "solubility (mole fraction)", "setting": "in n-octanol, 293.15 K", "value": 0.0186},
      {"measurement": "solubility (mole fraction)", "setting": "in n-octanol, 298.15 K", "value": 0.0229},
      {"measurement": "solubility (mole fraction)", "setting": "in n-octanol, 303.15 K", "value": 0.0278},
      {"measurement": "solubility (mole fraction)", "setting": "in n-octanol, 308.15 K", "value": 0.0329},
      {"measurement": "solubility (mole fraction)", "setting": "in n-octanol, 313.15 K", "value": 0.0385}
    ]}
  ]
}
